# From US12336540B2, “Method for controlling weeds” (SUMITOMO CHEMICAL COMPANY, LIMITED, priority 2019, dated 2025)
# Where two headings read alike, the source gives them in different places.
# Tests used:
# [1] = test system: Palmer amaranth, waterhemp, kochia, common ragweed or marestail; details: spot foliar treatment of 20% of pot area, 560 g/ha dicamba acid equivalence, 150 L/ha; soybean, corn or cotton seeded immediately after, grown 21 days; compared with plot without crop and plot with uniform blanket treatment at 560 g/ha
# Experimental: (§1) The evaluation of the herbicidal efficacy is classified into 0 to 100, where the numeral “0” indicates no or little difference in the state of emergence or growth of weeds under test at the time of examination as compared with untreated weeds, and the numeral “100” indicates the complete death of weeds under test or the complete inhibition of emergence or growth of weeds under test.
# A pot is filled with a soil, and then Palmer amaranth, waterhemp, kochia, common ragweed or marestail is seeded at a corner portion of the soil. […] Immediately thereafter, soybean (Genuity Roundup Ready 2 Xtend), corn (Genuity Roundup Ready 2), or cotton (Genuity Roundup Ready 2 Xtend) is seeded in a corner portion different from vegetation patches of weeds in the soil, and grown in the greenhouse for 21 days. This is defined as the invention plot.
# [2] = test system: Palmer amaranth, waterhemp, kochia, common ragweed or marestail; details: weeds and soybean, corn or cotton grown 14 days, spot foliar treatment of 20% of pot area, 560 g/ha dicamba acid equivalence, 150 L/ha, then grown 21 days; compared with plot without crop and plot with uniform blanket treatment at 560 g/ha
# Experimental: as §1
# A pot is filled with soil, and then Palmer amaranth, waterhemp, kochia, common ragweed, or marestail is seeded at a corner portion of the soil, and soybean (Genuity Roundup Ready 2 Xtend), corn (Genuity Roundup Ready 2), or cotton (Genuity Roundup Ready 2 Xtend) is seeded at another corner portion of the soil. […] Thereafter, the weeds and crops are grown in the greenhouse for 21 days. This is defined as the invention plot.
compound,measurement,setting,value
CN(CCCN)CCCN.COc1c(Cl)ccc(Cl)c1C(=O)O [dicamba-biproamine],weed control effect,[1],excellent weed control effect
same,weed control effect,[2],excellent weed control effect
